Counter-ions that a name gives are not always drawn.
How the values were obtained:
[1] = cited from earlier work
[2] = system: Rutgers Tomato; experiment: Relative suppression effect of selective S-(+)-ABA formulations on Rutgers Tomato (regression); format: in vivo; settings: treatment at 100 ppm
Experimental: (§1) Seedlings of Rutgers Tomato were sprayed with 4 ml water or treatment solution at the 3-4 leaf stage and held under well watered conditions in a greenhouse. Transpiration was measured daily for 3 days after treatment with a LiCor 1600 porometer. Transpiration readings were converted to percent of control to compensate for daily differences due to environmental factors like light intensity, humidity, and temperature.

[3] = system: Rutgers tomato seedlings; experiment: Transpiration rate of Rutgers tomato seedlings after foliar spray (LiCor 1600 porometer); format: in vivo; settings: for Transpiration rate as a percentage of control, Average of days 1, 2, and 3 after treatment: average of days 1-3
Experimental: as §1

Structure (SMILES): CC1=CC(=O)CC(C)(C)[C@@]1(O)/C=C/C(C)=C\C(=O)O [abscisic acid, S-(+)-abscisic acid]
- solubility in hard water (in words) ([1]; hard water, compared with pure water): even less
- highest concentration that can be achieved in pure water ([1]; pure water at room temperature): about 3000 ppm
- water solubility ([1]; water at 24° C.): ~3 grams/1000 mL

Structure (SMILES): CC1=CC(=O)CC(C)(C)[C@@]1(O)/C=C/C(C)=C\C(=O)O [ABA, ammonium salt of (S)-(+)-abscisic acid]
- Equivalent to s-ABA (ppm) ABA (ppm) ([2]; Rutgers Tomato, regression): 100 ppm
- Log[ABA] ([2]; log of equivalent s-ABA ppm): 2.00
- (Regression) Calculated Enhancement ([2]; relative to 100 ppm ABA): 1.00
- Transpiration rate as a percentage of the transpiration rate of control plants, 1 day after treatment ([3]; 75 ppm spray, 4 ml, 3-4 leaf stage): 91%
- Transpiration rate as a percentage of the transpiration rate of control plants, 2 days after treatment ([3]; 75 ppm spray): 94%
- Transpiration rate as a percentage of the transpiration rate of control plants, 3 days after treatment ([3]; 75 ppm spray): 72%
- Transpiration rate as a percentage of control, Average of days 1, 2, and 3 after treatment ([3]; 75 ppm spray): 86%
- Transpiration rate as a percentage of the transpiration rate of control plants, 1 day after treatment ([3]; 250 ppm spray): 72%
- Transpiration rate as a percentage of the transpiration rate of control plants, 2 days after treatment ([3]; 250 ppm spray): 102%
- Transpiration rate as a percentage of the transpiration rate of control plants, 3 days after treatment ([3]; 250 ppm spray): 75%
- Transpiration rate as a percentage of control, Average of days 1, 2, and 3 after treatment ([3]; 250 ppm spray): 83%
- Transpiration rate as a percentage of the transpiration rate of control plants, 1 day after treatment ([3]; 750 ppm spray): 60%
- Transpiration rate as a percentage of the transpiration rate of control plants, 2 days after treatment ([3]; 750 ppm spray): 83%
- Transpiration rate as a percentage of the transpiration rate of control plants, 3 days after treatment ([3]; 750 ppm spray): 68%
- Transpiration rate as a percentage of control, Average of days 1, 2, and 3 after treatment ([3]; 750 ppm spray): 70%
- Transpiration rate as a percentage of the transpiration rate of control plants, 1 day after treatment ([3]; 2500 ppm spray): 36%
- Transpiration rate as a percentage of the transpiration rate of control plants, 2 days after treatment ([3]; 2500 ppm spray): 35%
- Transpiration rate as a percentage of the transpiration rate of control plants, 3 days after treatment ([3]; 2500 ppm spray): 43%
- Transpiration rate as a percentage of control, Average of days 1, 2, and 3 after treatment ([3]; 2500 ppm spray): 38%
- Effect of spraying on transpiration (in words) ([3]; Rutgers tomato seedlings, spray): reduced transpiration in a dose dependant manner

From US20110065581A1, “Liquid Compositions Containing S-(+)-Abscisic Acid in Combination with Selected Lipophilic Agents and Methods of their Preparation” (priority 2007, published 2011)
